Measured values from patent US20130337564A1, “Treatment of Pluripotent Cells” (Janssen Biotech, Inc., priority 2012, published 2013).
Several values for one entry are separate records, joined by “and”; a condition that tells them apart may be missing. Equal values may be shown once.

Assays:
Format in all cases: cell-based
[1] = tested on: HNF-3beta expression in human embryonic stem cells (H9 line); experiment: High content screening assay: HNF-3beta protein expression (differentiation); details: for HNF-3b Expression Fold over Wnt 3a/AA control: total intensity normalised to Wnt 3a/AA control
Description: (§1) Maintenance of human embryonic stem cells (H9 line) was conducted as described in Example 1. Colonies of cells were maintained in an undifferentiated, pluripotent state with passage on average every four days. Passage was performed by exposing cell cultures to a solution of collagenase (1 mg/ml; Sigma-Aldrich) for 10 to 30 minutes at 37° C. followed by gentle scraping with a pipette tip to recover cell clusters. Clusters were allowed to sediment by gravity, followed by washing to remove residual collagenase. Cell clusters were split at a 1:3 ratio for routine maintenance culture or a 1:1 ratio for immediate assay. The human embryonic stem cell lines used were maintained at passage numbers less than passage 50 and routinely evaluated for normal karyotypic phenotype and absence of mycoplasma contamination.
(§2) Cell clusters used in the assay were evenly resuspended in normal culture medium and plated onto MATRIGEL-coated 96-well Packard VIEWPLATES (PerkinElmer) in volumes of 100 μA/well. MEF conditioned medium supplemented with 8 ng/ml bFGF was used for initial plating and recovery. Daily feeding was conducted by aspirating spent culture medium from each well and replacing with an equal volume of fresh medium. Plates were maintained at 37° C., 5% CO2 in a humidified box throughout the duration of assay.
(§3) Screening was conducted using test compounds from a proprietary library of small molecules selected for their ability to inhibit GSK-3B enzyme activity. Compounds from this library were made available as 1 mM stocks, in a 96-well plate format in 50 mM HEPES, 30% DMSO. Screening compounds were tested in triplicate or duplicate sets. Primary screening assays were initiated by aspirating culture medium from each well followed by three washes in PBS to remove residual growth factors and serum. Test volumes of 80 to 100 μl per well were added back containing DMEM:F12 base medium (Invitrogen) supplemented with 0.5% FCS (HyClone) and 100 ng/ml activin A (R&D Biosystems) plus 10 μM test compound. Positive control wells contained the same base medium, substituting 10-20 ng/ml Wnt3a (R&D Biosystems) for the test compound. Negative control wells contained base medium with 0.5% FCS and activin A alone (AA only) or alternatively, 0.5% FCS without activin A or Wnt3a (no treatment). Wells were aspirated and fed again with identical solutions on day 2 of assay. On days 3 and 4, all assay wells were aspirated and converted to DMEM:F12 supplemented with 2% FCS and 100 ng/ml activin A (without test compound or Wnt3a); parallel negative control wells were maintained in DMEM:F12 base medium with 2% FCS and activin A (AA only) or alternatively, 2% FCS without activin A (no treatment).
(§4) At the end of culture, cells in 96-well plates were fixed with 4% paraformaldehyde at room temperature for 20 minutes, washed three times with PBS, and then permeabilized with 0.5% Triton X-100 for 20 minutes at room temperature. Alternatively, cells were fixed with ice cold 70% ethanol overnight at −20° C., washed three times with PBS, and then permeabilized with Triton X-100 for 5 minutes at 4° C. After fixing and permeabilizing, cells were washed again three times with PBS and then blocked with 4% chicken serum (Invitrogen) in PBS for 30 minutes at room temperature. Primary antibodies (goat anti-human Sox17 and goat anti-human HNF-3beta; R&D Systems) were diluted 1:100 in 4% chicken serum and added to cells for one hour at room temperature. Alexa Fluor 488 conjugated secondary antibody (chicken anti-goat IgG; Molecular Probes) was diluted 1:200 in PBS and added after washing the cells three times with PBS. To counterstain nuclei, 5 mM Draq5 (Alexis Biochemicals) was added for five minutes at room temperature. Cells were washed once with PBS and left in […] PBS for imaging.
(§5) Cells were imaged using an IN Cell Analyzer 1000 (GE Healthcare) utilizing the 51008bs dichroic for cells stained with Draq5 and Alexa Fluor 488. […]

[2] = tested on: human embryonic stem cells (H9 line); experiment: High content screening assay: cell number (proliferative response)
Description: as §1, §2, §3, §4, §5

[3] = tested on: cells expressing pluripotency markers derived from human embryonic stem cells; experiment: MTS viability (toxicity) assay of cells expressing pluripotency markers; set-up: Raw data (duplicate), first replicate / Average: unit not given here; details: for % Control / viability at 10 µM: viability of cells expressing pluripotency markers, relative to control; for viability at 10 µM: Homo sapiens, Embryonic stem cell
Description: Derivation and maintenance of cells expressing pluripotency makers was conducted as has been described in Example 2. Cells were grown in DMEM:F12 supplemented with 2% FCS (Invitrogen), 100 ng/ml Activin A, 20 ng/ml Wnt-3a, and 50 ng/ml IGF (R&D Biosystems). Cells were seeded at a density of 10,000 cells/cm^2 on Falcon polystyrene flasks and grown in monolayer culture at 37° C., 5% CO2, low oxygen. After reaching 60-70% confluence, cells were passed by washing the monolayer with PBS and incubating with TrypLE (Invitrogen) for 3-5 minutes to allow detachment and single cell dispersal.
Screening was conducted using test compounds from a proprietary library of small molecules selected for their ability to inhibit GSK-3B enzyme activity. Compounds from this library were made available as 1 mM stocks, in a 96-well plate format in 50 mM HEPES, 30% DMSO. For assay, cells expressing pluripotency markers were washed, counted, and plated in normal culture medium at a seeding density of 20,000 cells per well in 96-well clear-bottom, dark-well plates (Costar). This seeding density was previously determined to yield optimal monolayer formation in overnight culture. On the following day, culture medium was removed, cell monolayers were rinsed three times with PBS, and test compounds were added to the wells in 80 μl aliquots, each diluted into assay medium at a final assay concentration of 10 μM. On day 2 of the assay, medium was removed from each well and replaced with a fresh aliquot of test compounds diluted into assay medium. Assay medium on days 1 and 2 of culture consisted of DMEM:F12 supplemented with 0.5% FCS and 100 ng/ml Activin A. On days 3 and 4 of culture, medium was removed from each well and replaced with DMEM:F12 supplemented with 2% FCS and 100 ng/ml Activin A (no test compound). On day 4 of assay, 15 μl of MTS (Promega) was added to each well and plates were incubated at 37° C. for 1.5 to 4 hours prior to reading optical density at 490 nm on a SpectraMax (Molecular Devices) instrument. Statistical measures consisting of mean, standard deviation, and coefficient of variation were calculated for each duplicate set. Toxicity was calculated for each test well relative to a positive control (wells treated with Activin A and Wnt3a on days 1 and 2 of culture).
A larger proportion of the compounds have minimal or no measurable toxicity in this cell-based assay.
A small panel of select compounds was repeat tested over a narrow dose titration range, again using cells expressing pluripotency markers in a similar assay as described above.

[4] = tested on: Sox17 expression in human embryonic stem cells (H9 line); experiment: High content screening assay: Sox17 protein expression (differentiation); details: for SOX-17 Expression Fold over Wnt 3a/AA control: total intensity normalised to Wnt 3a/AA control
Description: as §1, §2, §3, §4, §5

[5] = tested on: human embryonic stem cells (H9 or H1 lines); experiment: Plate reader (MTS) proliferation assay; details: plate reader raw signal, mean of replicate wells; proliferation of human embryonic stem cells
Description: Maintenance of human embryonic stem cells (H9 or H1 lines) was conducted as described in Example 1. Colonies of cells were maintained in an undifferentiated, pluripotent state with passage on average every four days. Passage was performed by exposing cell cultures to a solution of collagenase (1 mg/ml; Sigma-Aldrich) for 10 to 30 minutes at 37° C. followed by gentle scraping with a pipette tip to recover cell clusters. Clusters were allowed to sediment and washed to remove residual collagenase. Cell clusters were split at a ratio of 1:3 monolayer area for routine culture or a 1:1 ratio for immediate assay. The human embryonis stem cell lines used for these examples were maintained at passage numbers less than 50 and routinely evaluated for normal karyotypic phenotype as well as absence of mycoplasm contamination.
as §2, with “in” for “in the”, “into” for “onto”, “μl/well.” for “μA/well.”, “bFGF)” for “bFGF”, “C.” for “C., 5% CO2”, “box, 5% CO2” for “box”
Primary screening assays were initiated by aspirating culture medium from each well followed by three washes in PBS to remove residual growth factors and serum. Test volumes of 80-100 μl per well were added back containing DMEM:F12 base medium (Invitrogen) supplemented with 0.5% FCS (HyClone) and 100 ng/ml activin A (R&D Biosystems) and 10 μM test compound. Positive control wells contained the same medium substituting 10-20 ng/ml Wnt3a (R&D Biosystems). Negative control wells contained base medium with 0.5% FCS without activin A or Wnt3a. Screening compounds were tested in triplicate. Wells were aspirated and fed again with identical solutions on day 2 of the assay. On days 3 and 4, all assay wells were aspirated and converted to DMEM:F 12 supplemented with 2% FCS and 100 ng/ml activin A with the exception of negative control wells which were maintained in DMEM:F12 base medium with 2% FCS.
On day 4 of assay, 15-20 μl of MTS (Promega) was added to each well and plates were incubated at 37° C. for 1.5 to 4 hours. Densitometric readings at OD490 were determined using a Molecular Devices spectrophotometer plate reader. Average readings for replicate sets were calculated along with standard deviation and coefficient of variation. Experimental wells were compared to the Activin A/Wnt3a positive control to calculate a percent control value as a measure of proliferation.
Strong hits are defined as greater than or equal to 120% of control values; moderate hits are defined as falling within the interval of 60-120% of control values. A significant number of compounds induce a proliferative response in this assay.

[6] = 10 μM test compound with 100 ng/ml activin A on days 1-2, H9, total intensity by IN Cell Analyzer, strong and moderate hits
[7] = cell number in the wells analysed for HNF-3b expression
[8] = cell number in the wells analysed for HNF-3b expression, normalised to Wnt 3a/AA control
[9] = cell number in the wells analysed for SOX-17 expression
[10] = cell number in the wells analysed for SOX-17 expression, normalised to Wnt 3a/AA control
[11] = MTS viability assay raw reading, replicate 1
[12] = MTS viability assay raw reading, replicate 2
[13] = average of duplicate MTS raw readings

O=C1NC(=O)C2=C1c1cn(c3ncccc13)CCOCCOCCOCCn1cc2c2cccnc21 [Compound 2, 6,7,9,10,12,13,15,16-Octahydro-23H-5,26:17,22-di(metheno)dipyrido[2,3-k:3′,2′-q]pyrrolo[3,4-n][1,4,7,10,19]trioxadiazacyclohenicosine-23,25(24H)-dione]
HNF3β Expression, Fold over Wnt 3a/AA control [1, 6]: 1.0087 Fold over Wnt 3a/AA control
HNF-3b Expression Total Intensity [1]: 463525000
HNF-3b Expression Fold over Wnt 3a/AA control [1]: 1.0087 fold
Proliferative Response Fold over Wnt 3a/AA control ([2]; 10 μM test compound with 100 ng/ml activin A on days 1-2, H9, total cell number by IN Cell Analyzer, strong and moderate hits): 1.3757 Fold over Wnt 3a/AA control and 1.1246 Fold over Wnt 3a/AA control
Proliferative Response Total cells [2, 7]: 5679
Proliferative Response Fold over Wnt 3a/AA control [2, 8]: 1.125 fold
Proliferative Response Total cells [2, 9]: 10963
Proliferative Response Fold over Wnt 3a/AA control [2, 10]: 1.376 fold
Raw data (duplicate), first replicate [3, 11]: 0.785
Raw data (duplicate), second replicate [3, 12]: 0.790
Average [3, 13]: 0.788
% Control [3]: 94.0%
SOX17 Expression, Fold over Wnt 3a/AA control [4, 6]: 0.7921 Fold over Wnt 3a/AA control
SOX-17 Expression Total Intensity [4]: 296920000
SOX-17 Expression Fold over Wnt 3a/AA control [4]: 0.7921 fold

CN1CCCn2cc(c3ccccc32)C2=C(C(=O)NC2=O)c2cn(c3ccccc23)CCOCCOCC1 [Compound 3, 14-Methyl-6,7,9,10,12,13,14,15,16,17-decahydro-24H-5,27:18,23-di(metheno)dibenzo[l,r]pyrrolo[3,4-o][1,4,7,11,20]dioxatriazacyclodocosine-24,26(25H)-dione]
HNF-3b Expression Total Intensity [1]: 189875000
HNF-3b Expression Fold over Wnt 3a/AA control [1]: 0.4132 fold
Proliferative Response Total cells [2, 7]: 2184
Proliferative Response Fold over Wnt 3a/AA control [2, 8]: 0.4324 fold
Proliferative Response Total cells [2, 9]: 1766
Proliferative Response Fold over Wnt 3a/AA control [2, 10]: 0.2216 fold
Raw data (duplicate), first replicate [3, 11]: 0.161
Raw data (duplicate), second replicate [3, 12]: 0.169
Average [3, 13]: 0.165
% Control [3]: 6.9%
SOX-17 Expression Total Intensity [4]: 162790000
SOX-17 Expression Fold over Wnt 3a/AA control [4]: 0.4343 fold

NCCCn1nc(C2=C(c3cn(-c4csc5ccccc45)c4ccccc34)C(=O)NC2=O)c2ccccc21 [Compound 4]
HNF-3b Expression Total Intensity [1]: 125125000
Proliferative Response Total cells [2, 7]: 2776
Proliferative Response Total cells [2, 9]: 2914
viability at 10 µM [3]: 2.6%
Raw data (duplicate), first replicate [3, 11]: 0.132
Raw data (duplicate), second replicate [3, 12]: 0.137
Average [3, 13]: 0.134
fold induction at 10 µM ([4]; Homo sapiens, Embryonic stem cell, 10 μM test compound with 100 ng/ml activin A on days 1-2, H9, total intensity by IN Cell Analyzer, strong and moderate hits, read-out: SOX17 Expression, Fold over Wnt 3a/AA control): 0.616
SOX-17 Expression Total Intensity [4]: 230965000

O=C1NC(=O)C(c2nn(CCCO)c3ccccc23)=C1c1cn(-c2ccc3ccccc3c2)c2ncccc12 [Compound 19, 3-[1-(3-Hydroxypropyl)-1H-indazol-3-yl]-4-(1-naphthalen-2-yl-1H-pyrrolo[2,3-b]pyridin-3-yl)-1H-pyrrole-2,5-dione]
HNF-3b Expression Total Intensity [1]: 0
viability at 10 µM [3]: 85.2%

O=C1NC(=O)C(c2cn(CCCO)c3ncccc23)=C1c1cc[nH]c1 [Compound 242, 4-[1-(3-Hydroxypropyl)-1H-pyrrolo[2,3-b]pyridin-3-yl]-1H,1′H-3,3′-bipyrrole-2,5-dione]
Average (of Raw Data) [5]: 0.1152
viability at 10 µM [3]: 71%
Average ([3]; MTS viability readout, average of duplicate raw data): 0.601
Raw data (duplicate), first replicate ([3]; MTS viability readout, raw value of replicate 1): 0.590
Raw data (duplicate), second replicate ([3]; MTS viability readout, raw value of replicate 2): 0.613
